In the NIST ThermoML archive (doi:10.1021/je800110r):

Conditions: 323.14 K, Liquid, Vibrating tube method

CCCCCCCCCC [decane]
Conditions | mass density [kg/m3]
21395 kPa | 724.8
21420 kPa | 724.9
21444 kPa | 724.9
21473 kPa | 724.8
21501 kPa | 724.8
21526 kPa | 725
21647 kPa | 725
22710 kPa | 725.7
22733 kPa | 725.8
22768 kPa | 725.8
22800 kPa | 725.9
22832 kPa | 725.9
22860 kPa | 725.9
22884 kPa | 725.9
22916 kPa | 725.8
22948 kPa | 726
22977 kPa | 726.1
23013 kPa | 726
23034 kPa | 726.1
23071 kPa | 726.1
23103 kPa | 726.1
23124 kPa | 726.1
23149 kPa | 726.2
23170 kPa | 726.2
23191 kPa | 726.2
23219 kPa | 726.2
23256 kPa | 726.1
23294 kPa | 726.2
23332 kPa | 726.3
23357 kPa | 726.2
23391 kPa | 726.2
23412 kPa | 726.2
23442 kPa | 726.3
23475 kPa | 726.4
23509 kPa | 726.3
23539 kPa | 726.3
23578 kPa | 726.5
23612 kPa | 726.3
23710 kPa | 726.6
23736 kPa | 726.5
23762 kPa | 726.5
23806 kPa | 726.6
23832 kPa | 726.7
23854 kPa | 726.6
23881 kPa | 726.6
23912 kPa | 726.7
23938 kPa | 726.7
23970 kPa | 726.7
23996 kPa | 726.7
24633 kPa | 727.3
24707 kPa | 727.3
24732 kPa | 727.3
24765 kPa | 727.4
24799 kPa | 727.2
24832 kPa | 727.4
24861 kPa | 727.4
24899 kPa | 727.4
24942 kPa | 727.4
24979 kPa | 727.4
25000 kPa | 727.5
25022 kPa | 727.4
25061 kPa | 727.6
25103 kPa | 727.6
25129 kPa | 727.5
25160 kPa | 727.6
25190 kPa | 727.7
25216 kPa | 727.6
25251 kPa | 727.7
25291 kPa | 727.6
25325 kPa | 727.7
25361 kPa | 727.8
25383 kPa | 727.8
25422 kPa | 727.7
25458 kPa | 727.8
25493 kPa | 727.9
25521 kPa | 727.8
25556 kPa | 727.8
25593 kPa | 727.9
25624 kPa | 727.9
25670 kPa | 727.9
25706 kPa | 728
25742 kPa | 727.9
25783 kPa | 728
25828 kPa | 728
26192 kPa | 728.4
26343 kPa | 728.4
26723 kPa | 728.6
26758 kPa | 728.8
26793 kPa | 728.7
26842 kPa | 728.8
26872 kPa | 728.8
26912 kPa | 728.8
26952 kPa | 728.8
26992 kPa | 728.9
27043 kPa | 729
27362 kPa | 729.1
27409 kPa | 729.2
27440 kPa | 729.2
27472 kPa | 729.2
27524 kPa | 729.4
27568 kPa | 729.3
27605 kPa | 729.3
27657 kPa | 729.4
27684 kPa | 729.3
27758 kPa | 729.5
27796 kPa | 729.5
27882 kPa | 729.5
27920 kPa | 729.5
27958 kPa | 729.5
27997 kPa | 729.6
28042 kPa | 729.7
28096 kPa | 729.7
28135 kPa | 729.7
28185 kPa | 729.7
28230 kPa | 729.8
28317 kPa | 729.9
28358 kPa | 729.8
28393 kPa | 729.7
28457 kPa | 730.1
28496 kPa | 730
28541 kPa | 730
28571 kPa | 730.1
28605 kPa | 730
28640 kPa | 730.1
28675 kPa | 730.1
28714 kPa | 730.1
28744 kPa | 730.2
28779 kPa | 730.1
28819 kPa | 730.2
28844 kPa | 730.2
28887 kPa | 730.3
28913 kPa | 730.3
28938 kPa | 730.2
28968 kPa | 730.3
28999 kPa | 730.4
29030 kPa | 730.4
29065 kPa | 730.4
